The text below walks through data of patent publication US20210283139A1, “BIFUNCTIONAL MOLECULES FOR TARGETING UCHL5” (AMPHISTA THERAPEUTICS LTD, priority 2018, published 2021).

Bounds are passed on as bounds.

Broadly, the DC50 is the concentration at which degradation of the target reaches its halfway point. As usually defined, the Dmax is the largest share of the target that was removed.

What all share (format): cell-based
The test system of data set [1] is MV4-11 cells. In words: Anti-proliferative effect, CellTiter-Glo assay. The conditions noted are these: MV4-11, CellTiter-Glo, 72 h incubation, 5 μM and below. The procedure: The anti-proliferative effects of representative compounds were measured using the CellTiter-Glo assay (Promega). MV4-11 cells were incubated in a sterile, white, clear-bottomed 384-well cell-culture microplate (Greiner Bio-one), at 2× concentration in RPMI media and a volume of 25 μl. The next day, test compounds were serially diluted in RPMI media to 2× concentration, then added to cells to make a final volume of 50 μl. After a 72 h incubation 25 μl of CellTiter-Glo reagent was added to each well. Following 15 minute incubation the luminescence signal was read on a Pherastar FS. The final concentration of assay components are as follows: 3×10^5 cells/mL, 0.05% DMSO, 5 μM and below compound. Data (FIG. 11) was processed and dose-response curves generated using Prism 8 (Graphpad).
(ATP-based viability assays read luminescence as a measure of living cells.)

Data set [2] concerns the target T1, Brd3 (Homo sapiens, UniProt Q15059). In words: Concentration-dependent BET degradation, immunoblot, HEK293 cells. Further details: endogenous in cells; host or cells: HEK293. The conditions noted are these: HEK293, Brd3, 6 h treatment, 1 nM-10 μM. The procedure: (§1) Cell culture. HeLa (CCL-2) and HEK293 (CRL-1573) cells were purchased from ATCC and cultured in DMEM medium (Gibco) supplemented with 10% FBS, 100 μg/mL penicillin/streptomycin and L-glutamine. Cells were grown at 37° C. and 5% CO2, and were kept no longer than 30 passages. All cell lines were routinely tested for mycoplasma contamination using MycoAlert kit from Lonza.
(§2) Immunoblotting. proteins were separated by SDS-PAGE on NuPage 4-12% Bis-Tris gels, followed by transfer to Amersham Protran 0.45 NC nitrocellulose membrane (GE Healthcare) using wet transfer. Membranes were blocked using 5% w/v milk in Tris-buffered saline (TBS) with 0.1% Tween-20. Blots were probed (overnight at 4° C.) using anti-Brd2 (Abcam ab139690, 1:2,000 dilution), anti-Brd3 (Abcam ab50818, 1:500 dilution), and anti-Brd4 (Abcam ab128874, 1:1,000 dilution) primary antibodies, as appropriate. The next day, blots were washed with TBST and incubated (1 hr at RT) with anti-Tubulin hFAB-rhodamine (BioRad, 12004166) primary antibody, and either anti-rabbit IRDye 800CW (Licor 1:10,000 dilution) or anti-mouse IRDye 800CW (Licor 1:10,000 dilution) secondary antibody. Blots were developed using a Bio-Rad ChemiDoc MP Imaging System, and band quantification was performed using Image Studio software (LiCor). Band intensities were normalized to the tubulin loading control and reported as % of the average 0.1% DMSO vehicle intensity. Degradation data was plotted and analysed using Prism (Graphpad, version 8).
(§3) HeLa (5×10^5) and HEK293 (1×10^6) cells were seeded in standard 6-well plates (2 mL medium) overnight before treatment with compounds at the desired concentration (1 nM-10 μM), with a final DMSO concentration of 0.1% v/v. After 6 h treatment time, cells were washed with DPBS (Gibco) and lysed using 85 μL RIPA buffer (Sigma-Aldrich) supplemented with cOmplete Mini EDTA-free protease inhibitor cocktail (Roche) and benzonase. Lysates were clarified by centrifugation (20,000g, 10 min, 4° C.) and the total protein content of the supernatant was quantified using a Bradford colorimetric assay. Samples were prepared using equal amounts of total protein and LDS sample buffer (Invitrogen.
(§4) Representative blots in FIG. 3 show depletion of Brd2, Brd3 and Brd4 protein levels following treatment with increasing concentrations of representative compounds. Band intensities were normalized to the β-tubulin loading control and reported as % of the average 0.1% DMSO vehicle intensity, with each point representing mean±SEM of two independent experiments (n=2). Degradation data was plotted and analysed using Prism (Graphpad, version 8)
In general terms: In western blotting, separated proteins are transferred to a membrane and probed.

The target of data set [3] is T2, Brd2 (Homo sapiens, UniProt P25440). The data set is described as above. The following applies: HEK293, Brd2, 6 h treatment, 1 nM-10 μM; read-out: Dmax (%) maximum degradation observed. Further details: endogenous in cells; host or cells: HEK293. The procedure: as §1, §2, §3, §4
The target in data set [4] is T1, Brd3. The data set can be described thus: Concentration-dependent BET degradation, immunoblot, HeLa cells. Further details: endogenous in cells; host or cells: HeLa. The conditions noted are these: Brd3, 6 h treatment, 1 nM-10 μM. As to the method: as §1, §2, §3, §4
The target in data set [5] is T2, Brd2. The data set is described as above. Set-up: endogenous in cells; host or cells: HeLa. The conditions noted are these: Brd2, 6 h treatment, 1 nM-10 μM, read-out: Dmax (%) maximum degradation observed. As to the method: as §1, §2, §3, §4
Data set [6] has as its target T3, Brd4 (L) (Homo sapiens, UniProt O60885).
T3 construct: endogenous in cells; host or cells: HEK293, HeLa
The data set can be described thus: Concentration-dependent BET degradation, immunoblot, HEK293 cells. The following applies: 6 h treatment, 1 nM-10 μM, read-out: Dmax (%) maximum degradation observed. As to the method: as §1, §2, §3, §4

Data set [7] deals with T4, Brd4 (S) (Homo sapiens, UniProt O60885).
T4 construct: endogenous in cells; host or cells: HEK293, HeLa
The data set is described as above. The conditions noted are these: 6 h treatment, 1 nM-10 μM, read-out: Dmax (%) maximum degradation observed. As to the method:
as §1, §2, §3, §4

Data set [8] has as its target T3, Brd4 (L). The data set can be described thus: Concentration-dependent BET degradation, immunoblot, HeLa cells. The following applies: 6 h treatment, 1 nM-10 μM, read-out: Dmax (%) maximum degradation observed. As to the method:
as §1, §2, §3, §4

Data set [9] has as its target T4, Brd4 (S). The description is as above. The following applies: 6 h treatment, 1 nM-10 μM, read-out: Dmax (%) maximum degradation observed. The procedure: as §1, §2, §3, §4
For data set [10], the target named is T5, Brd4 (Homo sapiens, UniProt O60885).
T5 construct: endogenous in cells; host or cells: HEK293, HAP1, MV4-11
The data set can be described thus: Negative SAR: Brd4 immunoblot in HEK293 cells, active vs negative control. The conditions noted are these: HEK293, 1 μM, 6 h, three independent treatments. As to the method:
as §2
HEK293 (1×10^6) cells incubated with DMSO, 1 μM 05IB11 or 1 μM 05IB6 for 6 h with a final DMSO concentration of 0.1% v/v. Cells from three independent treatments (n=3) were lysed with RIPA buffer and immunoblotted for Brd4 and β-tubulin.

Data set [11] concerns the target T5, Brd4. The data set can be described thus: Proteasome dependency of Brd4 degradation in HEK293 cells (bortezomib pre-treatment). The following applies: HEK293, 1 μM, 6 h. As to the method:
as §2
(§5) HEK293 (1×10^6) cells were seeded in standard 6-well plates (2 mL medium) overnight before pre-treatment with 10 μM bortezomib. After a 0.5 h pre-incubation time, cells were subsequently treated with vehicle, 1 μM MZ1 or 1 μM 05IB6, yielding a final overall DMSO concentration of 0.2% v/v. After 6 h incubation, cells were washed with DPBS (Gibco) and lysed using 85 μL RIPA buffer (Sigma-Aldrich) supplemented with cOmplete Mini EDTA-free protease inhibitor cocktail (Roche) and benzonase. Lysates were clarified by centrifugation (20,000 g, 10 min, 4° C.) and the total protein content of the supernatant was quantified using a Bradford colorimetric assay. Samples were prepared using equal amounts of total protein and LDS sample buffer (Invitrogen).

Data set [12] addresses T5, Brd4. In words: Mechanistic evaluation of Brd4 degradation in HEK293 cells (degrasyn or I-BET726 pre-treatment). The following applies: 6 h. As to the method:
as §2
as §5, with “with inhibitors (5” for “with 10”, “μM degrasyn or 1 μM I-BET726).” for “μM bortezomib.”, “vehicle, 0.1” for “vehicle, 1”, “or 0.1” for “or 1”, “μM 05IB9,” for “μM 05IB6,”

Data set [13] has as its target T5, Brd4. In words: Mechanistic evaluation of Brd4 degradation in HAP1 cells (bortezomib, degrasyn or I-BET726 pre-treatment). The conditions noted are these: 6 h. The procedure: as §2
as §5, with “HAP1 (1×10^6)” for “HEK293 (1×10^6)”, “with inhibitors (10” for “with 10”, “μM bortezomib, 5 μM degrasyn or 1 μM I-BET726).” for “μM bortezomib.”, “vehicle, 0.1” for “vehicle, 1”, “or 0.1” for “or 1”, “μM 05IB9,” for “μM 05IB6,”
Representative blots from HAP1 lysates in FIG. 9 show depletion of Brd4 protein levels following 6 h treatment with 0.1 μM 05IB9 or MZ1, in the presence and absence of 5 μM degrasyn and 10 μM bortezomib. Brd4 band intensities were normalized to β-tubulin loading control and reported in FIG. 9B as % of the average 0.1% DMSO vehicle intensity. Each bar is mean±SEM of three independent experiments performed in duplicate (n=3). […] Furthermore, excess […] competes with 05IB9, resulting in reduced degradation of Brd4.

Setting [14] is: read-out: Dmax (%) maximum degradation observed.

T1 sequence (Q15059 whole entry): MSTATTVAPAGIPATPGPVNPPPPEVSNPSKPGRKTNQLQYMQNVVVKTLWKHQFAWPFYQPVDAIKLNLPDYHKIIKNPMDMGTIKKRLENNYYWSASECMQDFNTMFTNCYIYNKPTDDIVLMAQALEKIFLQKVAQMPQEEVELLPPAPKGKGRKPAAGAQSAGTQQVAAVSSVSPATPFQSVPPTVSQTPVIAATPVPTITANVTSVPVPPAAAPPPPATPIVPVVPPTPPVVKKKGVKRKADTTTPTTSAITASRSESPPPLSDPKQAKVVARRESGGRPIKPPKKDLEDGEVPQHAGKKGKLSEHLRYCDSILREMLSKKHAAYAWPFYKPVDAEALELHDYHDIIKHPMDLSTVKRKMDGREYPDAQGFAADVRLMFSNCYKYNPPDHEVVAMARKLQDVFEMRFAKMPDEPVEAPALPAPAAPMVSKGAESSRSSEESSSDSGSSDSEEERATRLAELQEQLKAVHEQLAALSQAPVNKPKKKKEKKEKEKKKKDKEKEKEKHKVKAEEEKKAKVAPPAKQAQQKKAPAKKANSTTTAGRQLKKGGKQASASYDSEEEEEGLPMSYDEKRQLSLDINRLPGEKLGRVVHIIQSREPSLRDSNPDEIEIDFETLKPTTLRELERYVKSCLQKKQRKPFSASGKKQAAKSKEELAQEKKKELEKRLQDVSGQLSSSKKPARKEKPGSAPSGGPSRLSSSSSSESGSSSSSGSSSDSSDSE
T2 sequence (P25440 whole entry): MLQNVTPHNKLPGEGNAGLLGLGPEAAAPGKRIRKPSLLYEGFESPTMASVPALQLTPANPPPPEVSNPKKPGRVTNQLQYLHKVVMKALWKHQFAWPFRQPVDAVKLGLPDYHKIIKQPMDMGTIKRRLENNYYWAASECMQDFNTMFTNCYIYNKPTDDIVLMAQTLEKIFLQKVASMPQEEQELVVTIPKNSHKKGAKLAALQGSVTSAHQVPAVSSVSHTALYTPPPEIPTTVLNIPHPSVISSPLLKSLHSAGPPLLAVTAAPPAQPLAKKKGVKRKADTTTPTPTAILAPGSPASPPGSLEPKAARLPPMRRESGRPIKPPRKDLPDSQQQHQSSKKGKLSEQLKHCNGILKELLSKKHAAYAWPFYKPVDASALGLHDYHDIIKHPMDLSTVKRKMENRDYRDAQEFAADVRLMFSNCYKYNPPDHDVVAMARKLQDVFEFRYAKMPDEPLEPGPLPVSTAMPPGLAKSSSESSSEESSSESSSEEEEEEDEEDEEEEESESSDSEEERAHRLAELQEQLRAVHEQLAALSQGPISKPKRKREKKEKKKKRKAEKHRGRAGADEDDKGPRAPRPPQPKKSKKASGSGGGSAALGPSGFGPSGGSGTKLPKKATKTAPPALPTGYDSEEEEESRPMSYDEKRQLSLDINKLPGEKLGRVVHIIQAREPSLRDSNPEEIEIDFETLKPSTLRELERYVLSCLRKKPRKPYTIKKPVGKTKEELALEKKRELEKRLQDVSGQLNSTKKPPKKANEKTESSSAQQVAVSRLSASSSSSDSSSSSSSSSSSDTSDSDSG

As for `CCC[C@H](NC(=O)/C(C#N)=C/c1cccc(Br)n1)c1ccccc1` [Degrasyn, reference compound], the “cytotoxicity profile (anti-proliferative effect)” value in [1] is recorded as “significantly less cytotoxicity”.
With `CCCC(NC(=O)/C=C/c1cccc(Br)n1)c1ccc(OCCOCCOCCOCCOCCOCCOCCNC(=O)c2ccc(-c3ccc4c(c3)[C@H](Nc3ccc(Cl)cc3)C[C@H](C)N4C(C)=O)cc2)cc1` (some centres unmarked) [Example 05IB11], the DC50 in data set [2] is not above 50 nM; in [4], 51 to 500 nM. In addition, the Dmax in data set [2] (setting [14]) is not above 25%; in data set [3], not above 25%; in data set [4] (setting [14]), 26 to 50%; in data set [5] it was not above 25%; in data set [6], not above 25%; in data set [7], 26 to 50%. In addition, the maximal degradation (Dmax) in [8] and in data set [9] was not above 25% throughout. Besides, the Brd4 levels entry in data set [10] is recorded as “minimal depletion”.
In the case of `Cc1ncsc1-c1ccc(CNC(=O)[C@@H]2C[C@@H](O)CN2C(=O)[C@@H](NC(=O)COCCOCCOCCNC(=O)C[C@@H]2N=C(c3ccc(Cl)cc3)c3c(sc(C)c3C)-n3c(C)nnc32)C(C)(C)C)cc1` [MZ1, reference compound], the Brd4 protein levels entry in [11] is “depletion”; in data set [12] (HEK293, 0.1 μM), “depletion”; in [13] (HAP1, 0.1 μM), “depletion”. Also, the “Brd4 degradation in the presence of degrasyn or I-BET726” value in data set [12] (HEK293, 0.1 μM compound, 0.5 h pre-treatment with 5 μM degrasyn or 1 μM I-BET726) is listed as “only blocked by I-BET726”. The “Brd4 degradation in the presence of bortezomib or degrasyn” value in data set [13] (HAP1, 0.1 μM compound, 0.5 h pre-treatment with 10 μM bortezomib or 5 μM degrasyn) is reported as “only blocked by bortezomib”.
